Assay results published in patent US10905121B2, “Method for controlling PPO resistant weeds” (BASF SE, priority 2016, dated 2021).

Legend:
[1] = system: Amaranthus tamariscinus (AMATA, common waterhemp), Sensitive biotype (w.1); experiment: greenhouse herbicidal activity test, weed w.1; assay type: in vivo; conditions: scale 0 (no damage) to 100 (complete destruction)
From the text: (§1) The culture containers used were plastic flowerpots containing loamy sand with approximately 3.0% of humus as the substrate. The seeds of the test plants were sown separately for each species and/or resistant biotype. For the pre-emergence treatment, the active ingredients, which had been suspended or emulsified in water, were applied directly after sowing by means of finely distributing nozzles. The containers were irrigated gently to promote germination and growth and subsequently covered with transparent plastic hoods until the plants had rooted. This cover caused uniform germination of the test plants, unless this had been impaired by the active ingredients. For the post-emergence treatment, the test plants were first grown to a height of 3 to 15 cm, depending on the plant habit, and only then treated with the active ingredients which had been suspended or emulsified in water. For this purpose, the test plants were either sown directly and grown in the same containers, or they were first grown separately as seedlings and transplanted into the test containers a few days prior to treatment. Depending on the species, the plants were kept at 10-25° C. or 20-35° C., respectively. The test period extended over 2 to 4 weeks. During this time, the plants were tended, and their response to the individual treatments was evaluated. The evaluation was carried out by using a scale from 0 to 100. […]

[2] = system: Amaranthus tamariscinus (AMATA, common waterhemp), PPO resistant biotype 1 (w.2); experiment: greenhouse herbicidal activity test, weed w.2; assay type: in vivo; conditions: scale 0 to 100
From the text: as §1

[3] = system: Amaranthus tamariscinus (AMATA, common waterhemp), PPO resistant biotype 2 (w.3); experiment: greenhouse herbicidal activity test, weed w.3; assay type: in vivo; conditions: scale 0 to 100
From the text: as §1

[4] = system: Amaranthus tamariscinus (AMATA, common waterhemp), PPO resistant biotype 3 confirmed to contain the ΔG210 mutation (w.4); experiment: greenhouse herbicidal activity test, weed w.4; assay type: in vivo; conditions: PPO resistant biotype 3 (ΔG210), scale 0 to 100
From the text: as §1

[5] = system: Amaranthus tamariscinus (AMATA, common waterhemp), PPO resistant biotype 4 confirmed to contain the ΔG210 mutation (w.5); experiment: greenhouse herbicidal activity test, weed w.5; assay type: in vivo; conditions: PPO resistant biotype 4 (ΔG210), scale 0 to 100
From the text: as §1

[6] = system: sensitive (w.1) and resistant weeds (w.2 to w.5); experiment: greenhouse herbicidal activity test, summary over all biotypes; assay type: in vivo, Amaranthus tamariscinus; conditions: w.1 to w.5, including those shown to contain the ΔG210 mutation
From the text: as §1

With `C=CCOC(=O)C(C)(C)OC(=O)c1cc(-n2c(=O)cc(C(F)(F)F)n(C)c2=O)ccc1Cl` [(I).1, butafenacil] the “Weed control (%) w.1” value ([1]; use rate 4 g/ha) was 100%, the “Weed control (%) w.1” value ([1]; use rate 8 g/ha) was 100% and the “Weed control (%) w.2” value ([2]; use rate 4 g/ha) was 100%. For the same molecule, the “Weed control (%) w.2” value ([2]; use rate 8 g/ha) was 100%, the “Weed control (%) w.3” value ([3]; use rate 4 g/ha) was 100% and the “Weed control (%) w.3” value ([3]; use rate 8 g/ha) was 100%. For the same molecule, the “Weed control (%) w.4” value ([4]; use rate 4 g/ha) was 80%, the “Weed control (%) w.4” value ([4]; use rate 8 g/ha) was 85% and the “Weed control (%) w.5” value ([5]; use rate 4 g/ha) was 80%. The “Weed control (%) w.5” value ([5]; use rate 8 g/ha) was 83% and the “activity on sensitive and resistant weeds (in words)” value [6] was “very good activity”.
